This is an account of results in patent publication US11752169B2, “Treatment of pain with polysulfated polysaccharides” (PARADIGM BIOPHARMACEUTICALS LTD., priority 2018, dated 2023).

Entries after “also recorded” stand apart in the source; their conditions may differ.

Assay [1] concerns proNGF. In words: proNGF ELISA of culture supernatants of osteocyte-like cultures treated with rhTNF and PPS. The class given is cell-based, human. The source says: In order to maximise the clinical relevance of the findings from this study, the effects of PPS were to be tested on osteocyte-like cultures derived by differentiation in vitro for a period of 28 days from cells isolated from the subchondral bone of the proximal tibia of three patients with advanced knee OA who underwent total knee arthroplasty (TKA) surgery (KOA: Group 1). As a comparator group, cells isolated from the proximal femur of three patients who underwent total hip arthroplasty (THA) for neck of femur fracture (NOF: Group 2), were similarly differentiated and tested. […]
Cryopreserved cells from each donor (all at passage 0 or 1) were thawed and cultured for 10d in T75 cm^2 tissue culture flasks. Once confluent, cells were removed by collagenase/dispase digestion, washed by centrifugation, counted and adjusted to 5×10^5 cells/mL. […]
To examine further the effects of PPS on NGF expression, osteocyte-like cultures derived from three KOA and three NOF donor osteoblasts were treated after 3 days pre-treatment with differing concentrations of PPS, with rhTNFα in the absence or presence of the pre-treatment concentration of PPS. […] Therefore, in this study proNGF levels were also measured in the treated supernatants, as described in Materials and Methods.

Assay [2] has as its system NGF. In words: NGF immunostaining / confocal microscopy of osteocytes freshly isolated from human KOA bone. The format is cell-based. The conditions noted are these: osteocyte-enriched fractions of KOA bone digests, 24 h, qualitative (FIG. 22). The method, then: FIG. 22. NGF expression in isolated human osteocytes. Osteocyte-enriched fractions of sequential human trabecular bone digests were cultured for 24 h either untreated (A), treated with rhTNFα (B), PPS (0.5 μg/mL) (C) or a combination of both (D), and then examined by confocal microscopy for NGF immunoreactivity. Control cells were also immunostained using an isotype-matched negative control primary antibody (E). Images are representative of data obtained from two individual donors. Scale bars in each image represent 100 μm.
Cell seeded in 8-well chamber slides and differentiated for 28 days or freshly digested from bone were either untreated or treated with rhTNFα (1 ng/mL), PPS (50 μg/mL; ‘PPS50’) or PPS50+rhTNFα. Following differentiation, medium was removed and all wells rinsed with PBS (pH 7.4, Gibco) a total of three times. Cells were then fixed with 100 μL of Histochoice (Sigma-Aldrich) tissue fixative for 1 hour at room temperature. After fixation, wells were rinsed twice with distilled H2O and stored at 4° C. until staining. Cells were blocked with 50 μL of blocking buffer (5% v/v normal rabbit serum in 1×PBS) for 20 minutes at room temperature in a humid chamber. Cells were then rinsed with wash buffer (0.1% v/v normal rabbit serum in PBS) three times. […]

Take Sodium Pentosan Polysulfate [PPS]: the “effect of rhTNF on proNGF secretion” value in assay [1] (KOA and NOF cultures, rhTNFα 1 ng/mL 48 h after 3 days PPS pre-treatment, all PPS concentrations tested) is recorded as “strongly reversed”. Also, the “basal proNGF secretion” value in assay [1] (all donors' cells (KOA and NOF), all PPS concentrations tested (1, 5, 50 μg/mL)) is given as “strongly suppressed”. The “NGF expression (immunostaining), combination of rhTNF-α and PPS” value in assay [2] (PPS 0.5 μg/mL + rhTNFα) is on record as “downregulated; also recorded: qualitatively less staining”. In assay [2] (PPS 0.5 μg/mL), the “NGF expression (immunostaining), PPS alone vs control” value is on record as “qualitatively greater”.
